Test results: BindingDB's records for doi:10.1021/jm050513m (The University of Texas At Houston, 2005)
Square brackets hold non-standard residues; d marks the D form. Peptide text beside a SMILES is read from it. * marks the point of attachment. ξ: configuration not given here. pY = N[C@@H](Cc1ccc(OP(=O)(O)O)cc1)C(=O)O; Dip = N[C@H](C(=O)O)C(c1ccccc1)c1ccccc1; NH(1S-phenylethyl) = C[C@H](N*)c1ccccc1; Hydrocinnamoyl = O=C(CCc1ccccc1)*; NMeThr(3ξ) = CN[C@H](C(=O)O)C(C)O; Hyp = O=C(O)[C@@H]1C[C@@H](O)CN1; Met(O) = CS(=O)CC[C@H](N)C(=O)O; Thr(3ξ) = CC(O)[C@H](N)C(=O)O; Pip = O=C(O)[C@@H]1CCCCN1; Piperidide = C1CCN(*)CC1; Aze = O=C(O)[C@@H]1CCN1; Ahx = NCCCCCC(=O)O

Each compound was assayed against Signal transducer and activator of transcription 3 (Mus musculus, UniProt P42227) (assay: Fluorescence Polarization Assay). Conditions: not given.
Method: Fluorescence polarization (FP) binding assay is utilizing the intrinsic property of the fluorescent probe, which will have low polarization value when free in solution. On binding to a target, the polarization of the probe will increase. Reaction mixtures of full length STAT3 alpha and the probe were placed in wells of a 96-well microtiter plate. The test peptide solution was added to each well. Fluorescence polarization was then read in a Tecan Polarian plate reader. The IC50 values were obtained from nonlinear regression analysis in the one-site competition mode. Peptides were assayed three times using three separate Stat3-probe preparations. IC50 values are reported as the mean of three IC50 values +/- the standard deviation.

Sequence of Signal transducer and activator of transcription 3 (P42227 whole entry): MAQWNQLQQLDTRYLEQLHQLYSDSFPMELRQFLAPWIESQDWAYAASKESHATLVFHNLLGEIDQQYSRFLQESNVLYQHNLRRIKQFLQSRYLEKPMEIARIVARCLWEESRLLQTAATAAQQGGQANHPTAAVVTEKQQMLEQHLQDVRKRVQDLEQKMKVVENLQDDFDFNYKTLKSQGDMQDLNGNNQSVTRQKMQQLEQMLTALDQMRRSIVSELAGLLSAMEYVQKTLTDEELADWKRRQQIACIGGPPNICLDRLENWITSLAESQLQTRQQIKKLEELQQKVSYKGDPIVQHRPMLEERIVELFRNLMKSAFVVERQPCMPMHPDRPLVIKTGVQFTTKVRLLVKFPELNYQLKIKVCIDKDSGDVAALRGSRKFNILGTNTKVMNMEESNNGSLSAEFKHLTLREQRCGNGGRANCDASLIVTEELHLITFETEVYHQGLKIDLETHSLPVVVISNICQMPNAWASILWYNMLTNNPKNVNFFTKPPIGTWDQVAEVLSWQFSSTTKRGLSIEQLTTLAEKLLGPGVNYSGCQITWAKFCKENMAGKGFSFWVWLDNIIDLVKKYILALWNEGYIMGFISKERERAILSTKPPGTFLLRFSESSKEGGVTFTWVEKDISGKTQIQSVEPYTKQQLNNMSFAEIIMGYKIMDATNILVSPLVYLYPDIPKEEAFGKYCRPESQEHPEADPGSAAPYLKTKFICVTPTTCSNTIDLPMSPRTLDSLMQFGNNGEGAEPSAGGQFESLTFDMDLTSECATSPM

SMILES	IC50 [nM]
CC(=O)N[C@@H](Cc1ccc(OP(=O)(O)O)cc1)C(=O)N[C@@H](CC(C)C)C(=O)N1CCC[C@H]1C(=O)N[C@@H](CCC(N)=O)C(=O)N[C@@H](C)c1ccccc1 [4-[(2S)-2-{[(2S)-1-[(2S)-2-{[(1S)-3-carbamoyl-1-{[(1S)-1-phenylethyl]carbamoyl}propyl]carbamoyl}pyrrolidin-1-yl]-4-methyl-1-oxopentan-2-yl]carbamoyl}-2-acetamidoethyl]phenoxyphosphonic acid] (Ac-[pY]LPQ-{NH(1S-phenylethyl)})	596
CC(=O)N[C@@H](Cc1ccc(OP(=O)(O)O)cc1)C(=O)N[C@@H](CC(C)C)C(=O)N1CCC[C@H]1C(=O)N[C@@H](CCC(N)=O)C(=O)N1CCCCC1 [4-[(2S)-2-{[(2S)-1-[(2S)-2-{[(2S)-4-carbamoyl-1-oxo-1-(piperidin-1-yl)butan-2-yl]carbamoyl}pyrrolidin-1-yl]-4-methyl-1-oxopentan-2-yl]carbamoyl}-2-acetamidoethyl]phenoxyphosphonic acid] (Ac-[pY]LPQ-Piperidide)	7000

Other lines, results leading:

IC50 [nM]	SMILES
1220	CC(=O)N[C@@H](Cc1ccc(OP(=O)(O)O)cc1)C(=O)N[C@@H](CC(C)C)C(=O)N1CCC[C@H]1C(=O)N[C@@H](CCC(N)=O)C(=O)N(C)[C@H](C(N)=O)C(C)O (stereo partly drawn) [4-[(2S)-2-{[(2S)-1-[(2S)-2-{[(1S)-3-carbamoyl-1-{[(1S,2S)-1-carbamoyl-2-hydroxypropyl](methyl)carbamoyl}propyl]carbamoyl}pyrrolidin-1-yl]-4-methyl-1-oxopentan-2-yl]carbamoyl}-2-acetamidoethyl]phenoxyphosphonic acid] (Ac-[pY]LPQ[NMeThr(3ξ)]-NH2)
9780	CC(=O)N[C@@H](Cc1ccc(OP(=O)(O)O)cc1)C(=O)N[C@@H](CC(C)C)C(=O)N1CCC[C@H]1C(=O)NCCCCCC(N)=O [4-[(2S)-2-{[(2S)-1-[(2S)-2-[(5-carbamoylpentyl)carbamoyl]pyrrolidin-1-yl]-4-methyl-1-oxopentan-2-yl]carbamoyl}-2-acetamidoethyl]phenoxyphosphonic acid] (Ac-[pY]LP[Ahx]-NH2)
1400	CC(=O)N[C@@H](Cc1ccc(OP(=O)(O)O)cc1)C(=O)N[C@@H](CC(C)C)C(=O)N1CCC[C@H]1C(=O)N1CCN(CC(N)=O)CC1 [4-[(2S)-2-{[(2S)-1-[(2S)-2-{[4-(carbamoylmethyl)piperazin-1-yl]carbonyl}pyrrolidin-1-yl]-4-methyl-1-oxopentan-2-yl]carbamoyl}-2-acetamidoethyl]phenoxyphosphonic acid]
9810	CC(=O)N[C@@H](Cc1ccc(OP(=O)(O)O)cc1)C(=O)N[C@@H](CC(C)C)C(=O)N1CCC[C@H]1C(=O)NC1CCCC(C(N)=O)C1 (stereo partly drawn) [4-[(2S)-2-{[(2S)-1-[(2S)-2-[(3-carbamoylcyclohexyl)carbamoyl]pyrrolidin-1-yl]-4-methyl-1-oxopentan-2-yl]carbamoyl}-2-acetamidoethyl]phenoxyphosphonic acid]

Same assay, conditions: pH 7.5; 22 °C

SMILES	IC50 [nM]
CC(=O)N[C@@H](Cc1ccc(OP(=O)(O)O)cc1)C(=O)N[C@@H](CC(C)C)C(=O)N1C[C@H](O)C[C@H]1C(=O)N[C@@H](CCC(N)=O)C(=O)N[C@H](C(N)=O)C(C)O (stereo partly drawn) [4-[(2S)-2-{[(2S)-1-[(2S,4R)-2-{[(1S)-3-carbamoyl-1-{[(1S,2S)-1-carbamoyl-2-hydroxypropyl]carbamoyl}propyl]carbamoyl}-4-hydroxypyrrolidin-1-yl]-4-methyl-1-oxopentan-2-yl]carbamoyl}-2-acetamidoethyl]phenoxyphosphonic acid] (Ac-[pY]L[Hyp]Q[Thr(3ξ)]-NH2)	484
CC(=O)N[C@@H](Cc1ccc(OP(=O)(O)O)cc1)C(=O)N[C@H](C(=O)N1CCC[C@H]1C(=O)N[C@@H](CCC(N)=O)C(=O)N[C@H](C(N)=O)C(C)O)C(c1ccccc1)c1ccccc1 (stereo partly drawn) [4-[(2S)-2-{[(2S)-1-[(2S)-2-{[(1S)-3-carbamoyl-1-{[(1S,2S)-1-carbamoyl-2-hydroxypropyl]carbamoyl}propyl]carbamoyl}pyrrolidin-1-yl]-1-oxo-3,3-diphenylpropan-2-yl]carbamoyl}-2-acetamidoethyl]phenoxyphosphonic acid] (Ac-[pY][Dip]PQ[Thr(3ξ)]-NH2)	> 100000
CC(=O)N[C@@H](Cc1ccc(OP(=O)(O)O)cc1)C(=O)N[C@@H](CC(C)C)C(=O)N1CCC[C@@H]1C(=O)N[C@@H](CCC(N)=O)C(=O)N[C@H](C(N)=O)C(C)O (stereo partly drawn) [4-[(2S)-2-{[(2S)-1-[(2R)-2-{[(1S)-3-carbamoyl-1-{[(1S,2S)-1-carbamoyl-2-hydroxypropyl]carbamoyl}propyl]carbamoyl}pyrrolidin-1-yl]-4-methyl-1-oxopentan-2-yl]carbamoyl}-2-acetamidoethyl]phenoxyphosphonic acid]	> 100000
CC(=O)N[C@@H](Cc1ccc(OP(=O)(O)O)cc1)C(=O)N[C@@H](CC(C)C)C(=O)N1CC[C@H]1C(=O)N[C@@H](CCC(N)=O)C(=O)N[C@H](C(N)=O)C(C)O (stereo partly drawn) [4-[(2S)-2-{[(2S)-1-[(2S)-2-{[(1S)-3-carbamoyl-1-{[(1S,2S)-1-carbamoyl-2-hydroxypropyl]carbamoyl}propyl]carbamoyl}azetidin-1-yl]-4-methyl-1-oxopentan-2-yl]carbamoyl}-2-acetamidoethyl]phenoxyphosphonic acid] (Ac-[pY]L[Aze]Q[Thr(3ξ)]-NH2)	1660
CC(=O)N[C@@H](Cc1ccc(OP(=O)(O)O)cc1)C(=O)N[C@@H](CC(C)C)C(=O)N1CCC[C@H]1C(=O)N[C@@H](CCC(N)=O)C(=O)N[C@H](C(N)=O)C(C)O (stereo partly drawn) [4-[(2S)-2-{[(2S)-1-[(2S)-2-{[(1S)-3-carbamoyl-1-{[(1S,2S)-1-carbamoyl-2-hydroxypropyl]carbamoyl}propyl]carbamoyl}pyrrolidin-1-yl]-4-methyl-1-oxopentan-2-yl]carbamoyl}-2-acetamidoethyl]phenoxyphosphonic acid]	739
CC(C)C[C@H](NC(=O)[C@H](Cc1ccc(OP(=O)(O)O)cc1)NC(=O)CCc1ccccc1)C(=O)N1CCC[C@H]1C(=O)N[C@@H](CCC(N)=O)C(=O)N[C@H](C(N)=O)C(C)O (stereo partly drawn) [4-[(2S)-2-{[(2S)-1-[(2S)-2-{[(1S)-3-carbamoyl-1-{[(1S,2S)-1-carbamoyl-2-hydroxypropyl]carbamoyl}propyl]carbamoyl}pyrrolidin-1-yl]-4-methyl-1-oxopentan-2-yl]carbamoyl}-2-(3-phenylpropanamido)ethyl]phenoxyphosphonic acid] (Hydrocinnamoyl-[pY]LPQ[Thr(3ξ)]-NH2)	276
CC(=O)N[C@@H](Cc1ccc(OP(=O)(O)O)cc1)C(=O)N[C@@H](CC(C)C)C(=O)N1CCC[C@H]1C(=O)N[C@@H](CC[S+](C)[O-])C(=O)N[C@H](C(N)=O)C(C)O (stereo partly drawn) [4-[(2S)-2-{[(2S)-1-[(2S)-2-{[(1S)-1-{[(1S,2S)-1-carbamoyl-2-hydroxypropyl]carbamoyl}-3-methanesulfinylpropyl]carbamoyl}pyrrolidin-1-yl]-4-methyl-1-oxopentan-2-yl]carbamoyl}-2-acetamidoethyl]phenoxyphosphonic acid] (Ac-[pY]LP[Met(O)][Thr(3ξ)]-NH2)	9870
CC(=O)N[C@@H](Cc1ccc(OP(=O)(O)O)cc1)C(=O)N[C@@H](CC(C)C)C(=O)N1CCCC[C@H]1C(=O)N[C@@H](CCC(N)=O)C(=O)N[C@H](C(N)=O)C(C)O (stereo partly drawn) [4-[(2S)-2-{[(2S)-1-[(2S)-2-{[(1S)-3-carbamoyl-1-{[(1S,2S)-1-carbamoyl-2-hydroxypropyl]carbamoyl}propyl]carbamoyl}piperidin-1-yl]-4-methyl-1-oxopentan-2-yl]carbamoyl}-2-acetamidoethyl]phenoxyphosphonic acid] (Ac-[pY]L[Pip]Q[Thr(3ξ)]-NH2)	1240
